The record followed here is US20240425464A1, “Substituted Monohydrazides as Potent Antifungal Agents” (University of Kentucky Research Foundation, priority 2023, published 2024).

One assay concerns C. auris AR Bank #381. In words: MIC determination by in vitro antifungal assay. It counts as cell-based, Candida auris. Particulars: Candidozyma auris; C. auris AR Bank #381; read-out: MIC. Summed up: (§1)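 Growing yeast cultures are diluted into RPMI 1640, re-adjusted to OD600 0.12, and further diluted 1:100. All growth takes place at 35° C in medium buffered with 0.165 M MOPS to pH 7.0.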

A further assay has as its system C. auris AR Bank #382. In words: MIC determination by in vitro antifungal assay. Format: cell-based, Candida auris. Particulars: Candidozyma auris; C. auris AR Bank #382; read-out: MIC. Summed up:
as §1

The next assay concerns C. auris AR Bank #383. In words: MIC determination by in vitro antifungal assay. Format: cell-based, Candida auris. Particulars: Candidozyma auris; C. auris AR Bank #383; read-out: MIC. The gist of the method:
as §1

The next assay concerns C. auris AR Bank #385. In words: MIC determination by in vitro antifungal assay. Format: cell-based, Candida auris. Particulars: Candidozyma auris; C. auris AR Bank #385; read-out: MIC. Summed up: as §1
The test system of another assay is C. auris AR Bank #386. Description: MIC determination by in vitro antifungal assay. Format: cell-based, Candida auris. Particulars: Candidozyma auris; C. auris AR Bank #386; read-out: MIC. The gist of the method: as §1
Another assay relates to C. auris AR Bank #387. In words: MIC determination by in vitro antifungal assay. It counts as cell-based, Candida auris. Particulars: Candidozyma auris; C. auris AR Bank #387; read-out: MIC. Summed up: as §1
Another assay deals with C. auris AR Bank #388. Description: MIC determination by in vitro antifungal assay. It counts as cell-based, Candida auris. Particulars: Candidozyma auris; C. auris AR Bank #388; read-out: MIC. The gist of the method: as §1
In a further assay the test system is C. auris AR Bank #389. Description: MIC determination by in vitro antifungal assay. It counts as cell-based, Candida auris. Particulars: Candidozyma auris; C. auris AR Bank #389; read-out: MIC. The gist of the method:
as §1

The subject of assay [1] is Candida duobushaemulonii AR Bank #391. In words: MIC determination by in vitro antifungal assay. Format: cell-based. Particulars: Candidozyma duobushaemuli, read-out: MIC. The gist of the method: as §1
For assay [2], the system named is Candida duobushaemulonii AR Bank #392. Description: MIC determination by in vitro antifungal assay. It counts as cell-based. Particulars: Candidozyma duobushaemuli, read-out: MIC. The gist of the method:
as §1

Assay [3] concerns Candida duobushaemulonii AR Bank #394. In words: MIC determination by in vitro antifungal assay. Format: cell-based. Particulars: Candidozyma duobushaemuli, read-out: MIC. Summed up: as §1
The subject of assay [4] is Candida haemulonii AR Bank #393. In words: MIC determination by in vitro antifungal assay. It counts as cell-based. Particulars: Candidozyma haemuli, read-out: MIC. The gist of the method: as §1
Assay [5] deals with Candida haemulonii AR Bank #395. In words: MIC determination by in vitro antifungal assay. It counts as cell-based. Particulars: Candidozyma haemuli, read-out: MIC. Summed up:
as §1

For assay [6], the system named is Candida krusei AR Bank #397. In words: MIC determination by in vitro antifungal assay. Format: cell-based. Particulars: Pichia kudriavzevii; Candida strain AR Bank #397; read-out: MIC. Summed up:
as §1

Assay [7] deals with Candida lusitaniae AR Bank #398. In words: MIC determination by in vitro antifungal assay. Format: cell-based. Particulars: Clavispora lusitaniae; Candida strain AR Bank #398; read-out: MIC. The gist of the method: as §1
Assay [8] deals with Kodameae ohmeri AR Bank #396. In words: MIC determination by in vitro antifungal assay. Format: cell-based. Particulars: strain AR Bank #396; read-out: MIC. The gist of the method: as §1
Assay [9] has as its system Saccharomyces cerevisiae AR Bank #399. In words: MIC determination by in vitro antifungal assay. It counts as cell-based. Particulars: read-out: MIC. The gist of the method: as §1
Assay [10] has as its system panel of ten C. auris strains (AR Bank #381-390). Description: MIC determination, summary over the C. auris panel. Format: cell-based, Candida auris. Particulars: Candidozyma auris; against all ten C. auris strains tested (AR Bank #381-390). Summed up: as §1
Assay [11] concerns ten other fungal strains (AR Bank #391-400). Description: MIC determination, summary over ten additional fungal strains. It counts as cell-based. Particulars: read-out: MIC range. The protocol:
The antifungal agent amphotericin B (AmB) was purchased from VWR (Radnor PA, USA). AmB was dissolved in DMSO at a final concentration of 5 mg/mL and was stored at −20° C., protected from light. Candida albicans American Type Culture Collection (ATCC) 10231 (strain A), C. albicans ATCC 64124 (B), and C. albicans ATCC MYA-2876 (C) were obtained from Utah State University. C. albicans ATCC 90819 (D), C. albicans ATCC MYA-2310 (E), C. albicans ATCC MYA-1237 (F), C. albicans ATCC MYA-1003 (G), Candida glabrata ATCC 2001 (H), Candida krusei ATCC 6258 (I), Candida parapsilosis ATCC 22019 (J), Cryptococcus neoformans ATCC MYA-895 (M), Aspergillus terreus ATCC MYA-3633 (N), and Aspergillus flavus ATCC MYA-3631 (0) were obtained from the American Type Culture Collection (ATCC; Manassas, VA, USA). Aspergillus nidulans ATCC 38163 (P) was obtained from University of Kentucky. Clinically derived Aspergillus fumigatus NRRL 163 (Q), A. fumigatus NRRL 5109 (R), and A. fumigatus NRRL 6113 (S) were obtained from Northern Regional Research Laboratory (NRRL). Candida auris 384 (K), C. auris 390 (L), and fungal strains 381-400 (including 10 C. auris (AR Bank #381-390), 3 Candida duobushaemulonii (AR Bank #391, AR Bank #392, and AR Bank #394), 2 Candida haemulonii (AR Bank #393 and AR Bank #395), 1 Kodameae ohmeri (AR Bank #396), 1 C. krusei (AR Bank #397), 1 Candida lusitaniae (AR Bank #398), and 2 Saccharomyces cerevisiae strains (AR Bank #399 and AR Bank #400)) were part of a larger fungal library from the AR Bank maintained by the Centers for Disease Control and Prevention (CDC; Atlanta, GA, USA). Filamentous fungi and yeasts were cultivated at 35° C. in RPMI 1640 medium (with L-glutamine, without sodium bicarbonate, Sigma-Aldrich, St. Louis, MO) buffered to a pH of 7.0 with 0.165 M morpholinepropanesulfonic acid (MOPS) buffer (Sigma-Aldrich). For cytotoxicity assays, HepG2 and the mouse macrophage cell line J774A.1 were obtained from University of Kentucky. The human embryonic kidney cell line, HEK-293, was bought from the ATCC. Mammalian cells were grown in Dulbecco's Modified Eagle's Medium (DMEM) (from VWR) with 10% fetal bovine serum (FBS) (from VWR) and 1% Pen/Strep (from ATCC). Cell lines were cultured at 37° C. with 5% CO2 and passaged by trypsinization with 0.05% trypsin: 0.53 mM EDTA (from Sigma-Aldrich).
From the actively growing yeast culture, 100 µL were then transferred to 900 μL of RPMI 1640 medium and re-adjusted to achieve OD600 of 0.12 (˜1×10^6 CFU/mL). The cell suspension was further diluted to achieve 1:100 in RPMI 1640 medium.

As usually defined, the MIC is the smallest concentration in the dilution series that meets the test's criterion for growth inhibition.

≈ marks a conversion by molar mass, not a printed value.

In the case of `O=C(NNc1ccc(F)cc1F)c1cnccn1` [Compound 9g], the minimum inhibitory concentration (MIC) is 3.9 µg/mL (≈ 15.6 µM) in the assay on C. auris AR Bank #381; 1.95 µg/mL (≈ 7.79 µM) in the assay on C. auris AR Bank #382; 0.98 µg/mL (≈ 3.92 µM) in the assay with C. auris AR Bank #383; 0.98 µg/mL (≈ 3.92 µM) in the assay with C. auris AR Bank #385; 0.49 µg/mL (≈ 1.96 µM) in the assay on C. auris AR Bank #386; 0.49 µg/mL (≈ 1.96 µM) in the assay on C. auris AR Bank #387. In addition, the MIC in the assay with C. auris AR Bank #388 is 0.49 µg/mL (≈ 1.96 µM); in the assay on C. auris AR Bank #389, 0.49 µg/mL (≈ 1.96 µM); in assay [1] it was 0.49 µg/mL (≈ 1.96 µM); in [2], 0.24 µg/mL (≈ 0.959 µM); in [3], 7.8 µg/mL (≈ 31.2 µM); in assay [4], 0.24 µg/mL (≈ 0.959 µM). Moreover, the MIC was 1.95 µg/mL (≈ 7.79 µM) in assay [5]; 1.95 µg/mL (≈ 7.79 µM) in [6]; 3.9 µg/mL (≈ 15.6 µM) in assay [7]; 0.98 µg/mL (≈ 3.92 µM) in [8]; 7.8 µg/mL (≈ 31.2 µM) in assay [9]; 0.12 to 7.8 µg/mL (≈ 0.48 to 31.2 µM) in [10]. In addition, the MIC in assay [11] lay in the range of 0.06 to 7.8 µg/mL (≈ 0.24 to 31.2 µM).
